According to ChEMBL document CHEMBL4033764, “Seeking (and Finding) Biased Ligands of the Kappa Opioid Receptor” (ACS Med Chem Lett, 2017):

biological target: Kappa-type opioid receptor (Homo sapiens, UniProt P41145); test: Agonist activity at human kappa opioid receptor expressed in CHO cells assessed as beta-arrestin2 recruitment by enzyme fragment complementation method; assay type: cell-based
Sequence (P41145 whole entry, the tested form may be a part): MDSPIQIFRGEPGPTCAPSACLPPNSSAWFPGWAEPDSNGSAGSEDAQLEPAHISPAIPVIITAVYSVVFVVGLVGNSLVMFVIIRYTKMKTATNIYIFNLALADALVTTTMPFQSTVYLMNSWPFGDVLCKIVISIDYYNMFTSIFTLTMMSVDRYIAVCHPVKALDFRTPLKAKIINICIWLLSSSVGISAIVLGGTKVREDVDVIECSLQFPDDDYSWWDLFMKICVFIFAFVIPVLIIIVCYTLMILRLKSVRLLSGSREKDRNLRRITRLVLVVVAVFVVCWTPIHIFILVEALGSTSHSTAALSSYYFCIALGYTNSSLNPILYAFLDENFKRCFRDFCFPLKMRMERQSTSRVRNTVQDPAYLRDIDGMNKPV

| Compound | EC50 [µM] |
| --- | --- |
| CN(CCc1ccc(Cl)c(Cl)c1)[C@@H]1CCCC[C@H]1N1CCCC1 | 0.0566 |
| Cc1cc(CSc2nnc(-c3ccccn3)n2Cc2ccco2)ccc1C(F)(F)F | 4.13 |
| O=C(Nc1ccc(Cl)c(C(F)(F)F)c1)[C@H]1CC=C[C@H]2CCN(Cc3ccccc3)C(=O)[C@@H]12 | > 10 |
